Consider seven compounds from patent US20240246960A1 (adMare Therapeutics Society, priority 2021, published 2024).

As usually defined, the microsomal CLint is a measure of how fast metabolising enzymes remove a compound, apart from limits set by blood flow. The low end stands for slow turnover, the high end for rapid turnover. In general, IC50 refers to the concentration that gives 50% inhibition. By EC50 is commonly meant the concentration giving half of the maximal effect. For orientation: hepatocyte CLint means a measure of how fast metabolising enzymes remove a compound, apart from limits set by blood flow. The low end stands for greater metabolic stability, the high end for faster metabolism.

Series [1] in a line: Microsomal stability assay, human liver microsomes. The format is in vitro ADME. To be noted: for microsomal CLint at 0.1 uM: both sexes, human, liver microsomes. The procedure:
Samples were then mixed and centrifuged. Supernatants were used for HPLC-MS/MS analysis. […] Peak areas corresponding to the test compound were recorded.
On the technique in general: Liver microsomes are vesicles of endoplasmic reticulum, rich in cytochrome P450 enzymes.

The target of the next series is T1, DNA-PK (Homo sapiens, UniProt P78527).
T1 construct: purchased Invitrogen PR9107A
The series can be described thus: DNA-PK Assay for Biochemical Enzymatic Inhibition (ADP Glo Kinase assay). Put shortly: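 Human DNA-PK (25 ng) preincubated 15 min with compounds (ten three-fold dilutions) in HEPES pH 7.5, MgCl2, KCl, calf thymus DNA buffer, then substrate 434.4 μM and ATP 64.4 μM (final) for 60 min at room temperature. ADP-Glo luminescence; percent inhibition fitted by four-parameter regression for IC50.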
On the technique in general: ADP-Glo turns the ADP formed in a reaction into a luminescent signal.

The target of series [2] is T2, pDNA-PK ser2056 induction in HCT116 spheroids (Homo sapiens, UniProt P78527).
T2 construct: endogenous in cells; host or cells: HCT116 multicellular tumour spheroids
The series can be described thus: Multicellular tumour spheroid + radiation, pDNA-PK inhibition, HCT116. Format: cell-based. The note with it: 20 Gy, 20% O2. Put shortly:
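EC50 (μM) is concentration halving radiation-induced pDNA-PK ser2056, scored by fluorescent immunostaining of cryosections 2 h after 20 Gy. HCT116 tumour spheroids (~0.5 mm, stirred, 20% O2/5% CO2, 37 °C) exposed to serial dilutions from 10 or 5 μM to 3.5 nM starting 1 h before irradiation.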

Series [3] can be described thus: Microsomal stability assay, mouse liver microsomes. The note with it: for microsomal CLint at 0.1 uM: male, CD-1, mouse, liver microsomes, pH 7.4, Microsomal Stability Mouse Clint.
Method: Mouse liver microsomes were obtained from a pool of 250 or more male CD-1 mice. […] Final microsomal concentration was 0.1 mg/mL and test compound concentration was 0.1 uM with a maximum of 0.01% DMSO. The test compound was pre-incubated with pooled liver microsomes in phosphate buffer (pH 7.4) for 5 min in a 37° C. shaking water bath. The reaction was initiated by adding NADPH-generating system and incubated for 0, 15, 30, 45, and 60 min. The reaction was stopped by transferring the incubation mixture to acetonitrile/methanol. Samples were then mixed and centrifuged. Supernatants were used for HPLC-MS/MS analysis. The HPLC system consisted of a binary LC pump with autosampler, a C-18 column, and a gradient. Peak areas corresponding to the test compound were recorded. The compound remaining was calculated by comparing the peak area at each time point to time zero. The half-life was calculated from the slope of the initial linear range of the logarithmic curve of compound remaining (%) vs. time, assuming first order kinetics. In addition, the intrinsic clearance (Clint) was calculated from the half-life.
The target of series [4] is T3, DNA-PK phosphorylation at Serine 2056 (Homo sapiens, UniProt P78527).
T3 construct: host or cells: FaDu
The series can be described thus: Cellular Assay for Inhibition of DNA-PK Phosphorylation at Serine 2056 (FaDu cells, neocarzinostatin, sandwich ELISA). The format is cell-based. Put shortly:
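Readout was pSer2056 and total DNA-PK, measured by sandwich ELISA on protein-normalized lysates. Prior to lysis, compound was applied to FaDu cells for 1 h (0.3% DMSO), followed by 2 h of 1 μg/mL neocarzinostatin. IC50 values were fitted from log concentration versus % inhibition normalized to DMSO and NCS controls.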
Background: In an ELISA, binding on a coated surface is turned into a signal by an enzyme label.

Series [5] is described as follows: Hepatocyte stability assay, mouse hepatocytes. Format: in vitro ADME. To be noted: for hepatocyte CLint at 1 uM: male, CD-1, mouse, cryopreserved hepatocytes. The procedure: (§1) Cryopreserved mouse hepatocytes were obtained from a pool of 10 or more male CD-1 mice. Cryopreserved human hepatocytes were obtained from a pool of 10 or more donors of mixed gender. Final hepatocyte density was 0.7 million viable cells per mL and test compound concentration was 1 uM with a maximum of 0.01% DMSO. Cryopreserved hepatocytes were thawed, washed, and resuspended in Krebs-Heinslet buffer (pH 7.3). The reaction was initiated by adding the test compound into cell suspension and incubated for 0, […], 1, 1.5, and 2 h, respectively, at 37° C./5% CO2. The reaction was stopped by adding acetonitrile into the incubation mixture. Samples were then mixed, transferred completely to another 96-well plate, and centrifuged. Supernatants were used for HPLC-MS/MS analysis. […] Peak areas corresponding to the test compound were recorded.

Series [6] can be described thus: Hepatocyte stability assay, human hepatocytes. Format: in vitro ADME. To be noted: both sexes, human, cryopreserved hepatocytes, pH 7.3; Example 11. The procedure: as §1
The mark [7] stands for this setting: pH 7.4, 0.1 mg/mL microsomes, 0.1 uM compound.
[8] abbreviates: Example 7, spheroid, cell line HCT115 [sic], read-out: EC50 (pDNA-PK inhibition, immunohistochemical endpoint).
[9] abbreviates: Example 9 Study 2, read-out: Spheroid Cell line: HCT116 Immunohistochemical endpoint pDNA-PK inhibition EC50.
[10] abbreviates: 0.1 mg/mL microsomes, 0.1 uM compound.

Like-named read-outs stand apart in the source and are kept apart here.

As to `O=C(N[C@H]1CC[C@@H](Oc2nc(N3CCOCC3)cc3ncccc23)CC1)c1cccnn1` [Compound 120, N-((1s,4s)-4-((7-morpholino-1,6-naphthyridin-5-yl)oxy)cyclohexyl)pyridazine-3-carboxamide], in series [1], the “Microsomal Stability (human) % rem. 60 min” value is on record as “F (% remaining = 25-50%)”. Besides, the microsomal CLint at 0.1 uM was more than 116 µL/min/mg in series [1] (setting [7]) and less than 116 µL/min/mg in series [3] (setting [10]). In addition, the IC50 at DNA-PK (Table 1) lay in the range of 0.5 to 1 nM; in series [4] (Table 1) it was 100 to 1000 nM. In addition, the EC50 in series [2] (setting [8]) and in series [2] (setting [9]) was 1000 to 10000 nM each time. The “Microsomal Stability (mouse) % rem. 60 min” value in series [3] is on record as “H (% remaining = 75-100%)”.
In the case of `COc1ccnc(C(=O)N[C@H]2CC[C@@H](Oc3nc(N4CCOCC4)cc4ncccc34)CC2)n1` [Compound 131, 4-methoxy-N-((1s,4s)-4-((7-morpholino-1,6-naphthyridin-5-yl)oxy)cyclohexyl)pyrimidine-2-carboxamide], in series [1], the “Microsomal Stability (human) % rem. 60 min” value is “E (% remaining = 0-25%)”. Besides, the intrinsic clearance (microsomal CLint) at 0.1 uM in series [1] (setting [7]) and in series [3] (setting [10]) was more than 116 µL/min/mg throughout. Moreover, the values for the half-inhibitory concentration (IC50) (on DNA-PK (Table 1); in series [4] (Table 1)) were 0.5 to 1 nM and less than 100 nM, respectively. The EC50 in series [2] (setting [8]) and in series [2] (setting [9]) was 1000 to 10000 nM in each case. In addition, the “Microsomal Stability (mouse) % rem. 60 min” value in series [3] is on record as “E (% remaining = 0-25%)”.
Regarding `CN(c1cnc2cc(N3CCOCC3)nc(O[C@H]3CC[C@@H](Nc4ncccn4)CC3)c2c1)S(C)(=O)=O` [Compound 197, N-methyl-N-(7-morpholino-5-(((1s,4s)-4-(pyrimidin-2-ylamino)cyclohexyl)oxy)-1,6-naphthyridin-3-yl)methanesulfonamide], the IC50 at DNA-PK (Table 1) lay within 1 to 10 nM; in series [4] (Table 1), 100 to 1000 nM. Further, in series [5] (120 min), the “Hepatocyte Stability (mouse) % rem. 120 min” value is on record as “G (% remaining = 50-75%)”. This compound displayed a hepatocyte CLint at 1 uM in series [5] (pH 7.3, 0.7 million cells per mL, 1 uM compound) of more than 8.2 µL/min/1e6 cells.
With `CS(=O)(=O)Nc1cnc2cc(N3CCOCC3)nc(O[C@H]3CC[C@@H](NC(=O)c4ncccn4)CC3)c2c1` [LFA015, N-[4-[[3-(Methanesulfonamido)-7-morpholino-1,6-naphthyridin-5-yl]oxy]cyclohexyl]pyrimidine-2-carboxamide], in series [1] (Example 11), the “Microsomal Stability (human) % rem. 60 min” value is “H (% remaining = 75-100%)”. Further, the microsomal CLint at 0.1 uM in series [1] (pH 7.4, Example 11) was less than 116 µL/min/mg; in series [3] (Example 11) it was less than 116 µL/min/mg. The IC50 was less than 0.5 nM on DNA-PK (Table 2) and 1000 to 10000 nM in series [4] (Table 2). For the same compound, in series [3] (Example 11), the “Microsomal Stability (mouse) % rem. 60 min” value was “H (% remaining = 75-100%)”.
Consider `CS(=O)(=O)Nc1cnc2cc(N3CCOCC3)nc(O[C@H]3CC[C@@H](n4ccnc4)CC3)c2c1` [LFA017, N-[5-(4-Imidazol-1-ylcyclohexoxy)-7-morpholino-1,6-naphthyridin-3-yl]methanesulfonamide], for which, at DNA-PK (Table 2), the IC50 was less than 0.5 nM. Besides, the intrinsic clearance (hepatocyte CLint) at 1 uM was more than 8.2 µL/min/1e6 cells in series [5] (pH 7.3, Example 11) and less than 8.2 µL/min/1e6 cells in series [6].
For the compound `O=C(N[C@H]1CC[C@@H](Oc2nc(N3CCOCC3)cc3ncc(O)cc23)CC1)c1ncccn1` [LFA115, N-[4-[(3-Hydroxy-7-morpholino-1,6-naphthyridin-5-yl)oxy]cyclohexyl]pyrimidine-2-carboxamide], the “Microsomal Stability (human) % rem. 60 min” value in series [1] (Example 11) is given as “G (% remaining = 50-75%)”. For the same compound, the intrinsic metabolic clearance (microsomal CLint) at 0.1 uM in series [1] (pH 7.4, Example 11) was less than 116 µL/min/mg; in series [3] (Example 11), less than 116 µL/min/mg. Further, the IC50 was in the range of 0.5 to 1 nM on DNA-PK (Table 2) and 100 to 1000 nM in series [4] (Table 2). Moreover, the “Microsomal Stability (mouse) % rem. 60 min” value in series [3] (Example 11) was “G (% remaining = 50-75%)”.
Turning to `Oc1cnc2cc(N3CCOCC3)nc(O[C@H]3CC[C@@H](Nc4ncccn4)CC3)c2c1` [LFA117, 7-Morpholino-5-[4-(pyrimidin-2-ylamino)cyclohexoxy]-1,6-naphthyridin-3-ol], the “Microsomal Stability (human) % rem. 60 min” value in series [1] (Example 11) is “H (% remaining = 75-100%)”. Moreover, the microsomal CLint at 0.1 uM in series [1] (pH 7.4, Example 11) was less than 116 µL/min/mg; in series [3] (Example 11), less than 116 µL/min/mg. In addition, the IC50 was less than 0.5 nM on DNA-PK (Table 2) and less than 100 nM in series [4] (Table 2). Further, the “Microsomal Stability (mouse) % rem. 60 min” value in series [3] (Example 11) is “F (% remaining = 25-50%)”.
